A short description of the data set: Multi-component pharmacokinetic study of GQD, GQD-GC and single herb extracts in rats (plasma, LC/MS/MS). The class given is in vivo, Sprague-Dawley rats. How it is done: Male Sprague-Dawley rats (220–250 g) were used for PK study, and the details were described in Supplemental Data. All procedures were in accordance with the National Institutes of Health Guide for the Care and Use of Laboratory Animals.
For PK study of GQD and its component herbs, rats were randomly divided into six groups (n = 10 for each group) before oral administration.
All blood samples were immediately centrifuged at 6,000 rpm (4°C) for 20 min to obtain plasma. The plasma samples were stored at −80°C.
A Finnigan TSQ Quantum triple quadrupole mass spectrometer was connected to a Surveyor HPLC via ESI interface (ThermoFisher). High purity nitrogen was used as the sheath and auxiliary gas; Ultra-high purity argon was used as the collision gas (1.5 mTorr). Q1 and Q3 quadrupoles were set at unit resolution. […] The column temperature was 40°C. The mobile phase consisted of acetonitrile containing 2% (v/v) methanol (A) and water containing 0.1% (v/v) formic acid (B). […] An aliquot of 5 μL was injected for analysis. UV spectra were obtained by scanning from 200 to 400 nm. The mass spectrometer was operated in the (+)-ESI mode. The optimized parameters were as follows: sheath gas (N2), 50 arb; auxiliary gas (N2), 5 arb; spray voltage, 4.0 kV; capillary temperature, 330°C; collision energy, see Table S1. Analytes were detected in the selected reaction monitoring (SRM) mode. Data were processed by Xcalibur 2.0.7 software (ThermoFisher).
LC/MS/MS calibration and quantitation data were processed with Xcalibur 2.0.7 software (ThermoFisher). The maximal plasma concentrations (Cmax) and their time of occurrence (Tmax) were obtained directly from the measured data. Other pharmacokinetic parameters were calculated by non-compartment or compartment models using WinNonlin® software (v6.1, Pharsight). Unless otherwise stated, results were expressed as the mean ± SD. Statistical significance in differences of the means was determined by Student's t–test, with a significance level of P < 0.05.
Herbal materials and extracts.
The four component herbs, Puerariae Lobatae Radix (Ge-Gen, GG), Scutellariae Radix (Huang-Qin, HQ), Coptidis Rhizoma (Huang-Lian, HL), and Glycyrrhizae Radix et Rhizoma Praeparata cum Melle (Gan-Cao, GC) were purchased from Tianheng Pharmacy. GQD was prepared by decocting the four component herbs […]
pre-extraction of Ge-Gen using 200 mL of water for 0.5 h. The decoctions were combined, filtered, and concentrated in vacuum at 50 °C. GQD-GC was prepared using the same procedure, except that Gan-Cao was removed from the formula. Final concentration of the GQD-GC extract was equivalent to 1.0 g of the crude drugs per mL. For single herb extracts, the herbs were decocted in 8-fold volume of water for […]
Final concentrations of the extracts were 1.0 g/mL for Ge-Gen, and 0.5 g/mL for Huang-Qin, Huang-Lian and […]
For pharmacokinetic study, Male Sprague-Dawley rats (220-250 g) were obtained from the Laboratory Animal Center of Peking University Health Science Center. The […]
The rats had free access to tap water and soy-free custom diet (Ke’ao Xieli Co.). All procedures were in accordance with the National Institutes of Health Guide for the Care and Use of Laboratory Animals […]
Experimental details for the PK study
1. Preparation of internal standard solution, calibration standard solutions, and quality control solutions […]
internal standard solution. Reference standard compounds were dissolved in the internal standard solution to prepare individual stock solutions (1.0 mg/mL). These […]
each compound. The standard solution was then serially diluted to obtain calibration […]
Quality control stock solutions were prepared at three concentration levels as high QC (HQC), middle QC (MQC), and low QC (LQC), based on linear ranges of the analytes.
2.1. Sample preparation for pharmacokinetic study
The calibration standard and quality control solutions for pharmacokinetic study were […]

Setting [1] is: male, Sprague-Dawley, rat, plasma, po, 16.5 g/kg, GQD-GC group (GQD without Gan-Cao): rats, oral 16.5 g/kg, plasma, read-out: AUClast.
[2] abbreviates: male, Sprague-Dawley, rat, plasma, po, 18.9 g/kg, GQD group: rats, oral GQD extract 18.9 g/kg, plasma, read-out: AUClast.
Setting [3] is: male, Sprague-Dawley, rat, GQD group: rats, oral GQD extract 18.9 g/kg, plasma, read-out: Cmax.
The mark [4] stands for this setting: male, Sprague-Dawley, rat, GQD group: rats, oral GQD extract 18.9 g/kg, plasma, read-out: T1/2 (converted).
The mark [5] stands for this setting: male, Sprague-Dawley, rat, GQD group: rats, oral GQD extract 18.9 g/kg, plasma, read-out: Tmax.
Where [6] appears, read: male, Sprague-Dawley, rat, GQD-GC group (GQD without Gan-Cao): rats, oral 16.5 g/kg, plasma, read-out: Cmax.
[7] abbreviates: male, Sprague-Dawley, rat, GQD-GC group (GQD without Gan-Cao): rats, oral 16.5 g/kg, plasma, read-out: T1/2 (converted).
[8] abbreviates: male, Sprague-Dawley, rat, GQD-GC group (GQD without Gan-Cao): rats, oral 16.5 g/kg, plasma, read-out: Tmax.
Where [9] appears, read: male, Sprague-Dawley, rat, in vivo, po, 3.54 g/kg.
Where [10] appears, read: male, Sprague-Dawley, rat, in vivo, po, 3.54 g/kg, AUClast.
Where [11] appears, read: male, Sprague-Dawley, rat, plasma, po, 9.45 g/kg, GG (Ge-Gen) group: rats, oral extract 9.45 g/kg, plasma, read-out: AUClast.
[12] abbreviates: male, Sprague-Dawley, rat, GG (Ge-Gen) group: rats, oral extract 9.45 g/kg, plasma, read-out: Cmax.
[13] abbreviates: male, Sprague-Dawley, rat, GG (Ge-Gen) group: rats, oral extract 9.45 g/kg, plasma, read-out: T1/2 (converted).
The mark [14] stands for this setting: male, Sprague-Dawley, rat, GG (Ge-Gen) group: rats, oral extract 9.45 g/kg, plasma, read-out: Tmax.
[15] abbreviates: male, Sprague-Dawley, rat, in vivo, po, 2.36 g/kg.
The mark [16] stands for this setting: male, Sprague-Dawley, rat, in vivo, po, 18.9 g/kg.

Where two headings read alike, the source gives them in different places.

In general, Cmax refers to the highest concentration seen after dosing. By Tmax is commonly meant the time from dosing to the highest level. Take `COc1c(O)cc(O)c2c(=O)cc(-c3ccccc3)oc12` [Compound 8, wogonin]: the AUC(0-t) (male, Sprague-Dawley, rat, plasma, po, 3.54 g/kg, HQ (Huang-Qin) group: rats, oral extract 3.54 g/kg, plasma, read-out: AUClast) worked out at 473 ± 34.3 ng·h/mL; the AUC(0-t) under setting [1] was determined as 156 ± 73.4 ng·h/mL; the AUC(0-t) under setting [2] came to 282 ± 11.3 ng·h/mL. The Cmax turned out to be 12.9 ± 7.39 ng/mL under setting [3]; 10.2 ± 6.81 ng/mL under setting [6]; 38 ± 7.22 ng/mL (male, Sprague-Dawley, rat, HQ (Huang-Qin) group: rats, oral extract 3.54 g/kg, plasma, read-out: Cmax). Besides, the half-life is, setting by setting: under setting [4], 398 ± 143 min; under setting [7], 338 ± 65.4 min; (male, Sprague-Dawley, rat, HQ (Huang-Qin) group: rats, oral extract 3.54 g/kg, plasma, read-out: T1/2 (converted)) 327 ± 73.2 min. Besides, the Tmax under setting [5] was determined as 473 ± 59.4 min; the Tmax under setting [8] stood at 480 ± 127 min; the Tmax (male, Sprague-Dawley, rat, HQ (Huang-Qin) group: rats, oral extract 3.54 g/kg, plasma, read-out: Tmax) was found to be 481 ± 149 min.

Consider `COc1c(O)cc2oc(-c3ccccc3)cc(=O)c2c1O` [Compound 9, oroxylin A], for which, under setting [9], the Cmax was determined as 43.6 ± 3.04 ng/mL, the time of peak concentration (Tmax) came out at 4.8 ± 31.8 min and the half-life was 317 ± 140 min. Under setting [10], the AUC(0-t) came out at 351 ± 174 ng·h/mL.

Consider `O=c1cc(-c2ccccc2)oc2cc(O)cc(O)c12` [Compound 18, chrysin], for which, under setting [9], the highest level (Cmax) was 4.1 ± 0.44 ng/mL, the Tmax turned out to be 34.8 ± 13.8 min and the half-life is 292 ± 85.8 min. The AUC(0-t) under setting [10] turned out to be 41.3 ± 1.34 ng·h/mL.

On to `COc1ccc(-c2coc3c(C4OC(COC5OCC(O)(CO)C5O)C(O)C(O)C4O)c(O)ccc3c2=O)cc1` (stereo not drawn) [Compound 5, formononetin 8-C-apiofuranosyl(1,6)glucoside], for which the AUC(0-t) by setting is: under setting [11], 85 ± 19.2 ng·h/mL; under setting [1], 26 ± 7.29 ng·h/mL; under setting [2], 168 ± 83.3 ng·h/mL. The Cmax by setting is: under setting [12], 18.4 ± 5.1 ng/mL; under setting [3], 16 ± 5.44 ng/mL; under setting [6], 6.87 ± 2.05 ng/mL. In addition, the half-life by setting is: under setting [13], 539 ± 140 min; under setting [4], 422 ± 139 min; under setting [7], 314 ± 81 min. The Tmax was 23.4 ± 10.2 min under setting [14], 45.6 ± 226 min under setting [5] and 31.2 ± 39 min under setting [8]. In addition, the “bioavailability in the GQD group compared with the Ge-Gen group” value (rats, oral) is on record as “higher”.

For the compound `O=C1C[C@@H](c2ccc(O)cc2)Oc2cc(O)ccc21` [Compound 29, liquiritigenin], under setting [15], the Cmax came out at 22.63 ± 0.22 ng/mL, the Tmax was 60 ± 140 min and the half-life was 590 ± 211 min. The compound further gave an AUC(0-t) (male, Sprague-Dawley, rat, in vivo, po, 2.36 g/kg, AUClast) of 75.4 ± 81.1 ng·h/mL. Under setting [16], the Cmax worked out at 27.4 ± 9.97 ng/mL, the Tmax turned out to be 60 ± 55.8 min and the half-life was 674 ± 461 min. Where the note is “male, Sprague-Dawley, rat, in vivo, po, 18.9 g/kg, AUClast”, this compound returned an AUC(0-t) of 153 ± 9.34 ng·h/mL.

As to `COc1c(CC=C(C)C)c(O)cc2oc(=O)c(-c3ccc(O)cc3O)cc12` [Compound 30, glycycoumarin], the AUC result (Gan-Cao group: rats, oral 2.36 g/kg, plasma) is recorded as “not detected”. Moreover, the AUC(0-t) is, setting by setting: under setting [2], 37.9 ± 29.9 ng·h/mL; (male, Sprague-Dawley, rat, plasma, po, 18.9 g/kg, GQD group: rats, oral GQD 18.9 g/kg (1.5-fold of clinical dosage), plasma, read-out: AUClast) 37.9 ± 29.9 ng·h/mL. Also, under setting [3], the Cmax was determined as 7.47 ± 8.1 ng/mL. In addition, the half-life under setting [4] is 681 ± 203 min. The Tmax under setting [5] turned out to be 120 ± 74.4 min. The “plasma concentrations, effect of GQD compared with Gan-Cao” value (rats, oral) is on record as “improved”.

Regarding `COc1cc2c(cc1OC)-c1cc3ccc4c(c3c[n+]1CC2)OCO4` [Compound 22, epiberberine], the AUC(0-t) was 16.7 ± 9.45 ng·h/mL (male, Sprague-Dawley, rat, plasma, po, 3.54 g/kg, HL (Huang-Lian) group: rats, oral extract 3.54 g/kg, plasma, read-out: AUClast); 26.4 ± 11 ng·h/mL under setting [1]; 29.4 ± 21.3 ng·h/mL under setting [2]. Moreover, the Cmax amounted to 7.21 ± 3.62 ng/mL under setting [3]; 9.35 ± 1.71 ng/mL under setting [6]; 3.53 ± 0.34 ng/mL (male, Sprague-Dawley, rat, HL (Huang-Lian) group: rats, oral extract 3.54 g/kg, plasma, read-out: Cmax). Besides, the half-life is, setting by setting: under setting [4], 290 ± 7.8 min; under setting [7], 298 ± 51 min; (male, Sprague-Dawley, rat, HL (Huang-Lian) group: rats, oral extract 3.54 g/kg, plasma, read-out: T1/2 (converted)) 260 ± 10.8 min. Moreover, the Tmax reads like this: under setting [5], 34.8 ± 7.2 min; under setting [8], 32.4 ± 10.2 min; (male, Sprague-Dawley, rat, HL (Huang-Lian) group: rats, oral extract 3.54 g/kg, plasma, read-out: Tmax) 34.8 ± 13.8 min.

In the case of `CC1(C)[C@@H](O)CC[C@]2(C)[C@H]3C(=O)C=C4[C@@H]5C[C@@](C)(C(=O)O)CC[C@]5(C)CC[C@@]4(C)[C@]3(C)CC[C@@H]12` [Compound 40, glycyrrhetinic acid], the Cmax reads like this: (GQD group: rats, oral GQD extract 18.9 g/kg, plasma) 371.14 ± 66.69 ng/mL; (male, Sprague-Dawley, rat, GC (Gan-Cao) group: rats, oral extract 2.36 g/kg, plasma, read-out: Cmax) 359 ± 37.8 ng/mL. In addition, the AUC(0-t) was 9630 ± 778 ng·h/mL (male, Sprague-Dawley, rat, plasma, po, 2.36 g/kg, GC (Gan-Cao) group: rats, oral extract 2.36 g/kg, plasma, read-out: AUClast) and 8480 ± 1300 ng·h/mL under setting [2]. The half-life was 412 ± 148 min (male, Sprague-Dawley, rat, GC (Gan-Cao) group: rats, oral extract 2.36 g/kg, plasma, read-out: T1/2 (converted)) and 478 ± 154 min under setting [4]. The Tmax (male, Sprague-Dawley, rat, GC (Gan-Cao) group: rats, oral extract 2.36 g/kg, plasma, read-out: Tmax) is 803 ± 46.8 min.

Turning to `O=c1c(-c2ccc(O)cc2)coc2c([C@@H]3O[C@H](CO)[C@@H](O)[C@H](O)[C@H]3O)c(O)ccc12` [Compound 7, puerarin], the AUC(0-t) is 5020 ± 536 ng·h/mL under setting [11]; 5020 ± 536 ng·h/mL (male, Sprague-Dawley, rat, plasma, po, 9.45 g/kg, Ge-Gen group: rats, oral 9.45 g/kg, plasma, read-out: AUClast); 5610 ± 279 ng·h/mL under setting [1]; 8610 ± 766 ng·h/mL under setting [2]. Besides, the Cmax is, setting by setting: under setting [12], 488 ± 23.9 ng/mL; under setting [3], 577 ± 56.3 ng/mL; under setting [6], 416 ± 232 ng/mL. Moreover, the half-life was 382 ± 263 min under setting [13], 335 ± 174 min under setting [4] and 497 ± 133 min under setting [7]. For the same compound, the Tmax under setting [14] was 35.4 ± 0.6 min, the Tmax under setting [5] was 72 ± 89.4 min and the Tmax under setting [8] came out at 31.2 ± 4.2 min. Also, the “bioavailability in the GQD group compared with the Ge-Gen group” value (rats, oral) is on record as “higher”.
